Experiments:
[1] = target: T1, Rat Hepatic V1 Receptors (Rattus norvegicus, UniProt P30560); test: Binding Assay to Rat Hepatic V1 Receptors; conditions: for IC50: rat liver membranes, read-out: V1 IC50; for inhibition at 10 µM: 2 h, rat
T1 construct: Rat liver plasma membranes expressing the vasopressin V1 receptor subtypes; from tissue; host or cells: rat liver plasma membranes

[2] = test system: Vasopressin V2; test: Vasopressin V2 Antagonist Activity in Conscious Hydrated Rats; assay type: in vivo, rat; conditions: AVP 0.4 μg/kg i.p.
Method in brief: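 Four-hour urine output, osmolality and electrolytes (Na+, K+, Cl−) recorded in water-loaded rats (30 mL/kg deionized water orally) given AVP i.p. at 0.4 μg/kg. Test compounds were given orally at 0.1–100 mg/kg 1 h before AVP; 2–4 rats per compound.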

T1 sequence (P30560 whole entry): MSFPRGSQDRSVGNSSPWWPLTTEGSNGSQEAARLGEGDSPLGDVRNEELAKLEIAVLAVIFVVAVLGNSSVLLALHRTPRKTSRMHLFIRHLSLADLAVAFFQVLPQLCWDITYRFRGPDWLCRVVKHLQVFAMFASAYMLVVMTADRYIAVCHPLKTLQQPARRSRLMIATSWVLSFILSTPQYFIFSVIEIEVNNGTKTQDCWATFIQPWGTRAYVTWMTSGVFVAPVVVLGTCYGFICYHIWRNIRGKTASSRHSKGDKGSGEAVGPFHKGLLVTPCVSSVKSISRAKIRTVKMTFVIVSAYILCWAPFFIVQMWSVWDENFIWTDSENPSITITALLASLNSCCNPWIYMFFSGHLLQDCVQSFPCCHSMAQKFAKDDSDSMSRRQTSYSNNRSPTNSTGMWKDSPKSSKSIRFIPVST

IC50 [1] | Compound | Osmolality ([2]; 10 mg/kg orally) | Urine Volume ([2]; 10 mg/kg orally) | further results
14 nM | CN(C)CN(C(=O)c1ccc(Cl)cc1Cl)c1ccc(C(=O)N2Cc3cccn3Cc3ccccc32)cc1 [Example 490, N-[(Dimethylamino)methyl]-N-[4-(5H-pyrrolo[2,1-c][1,4]benzodiazepin-10(11H)-ylcarbonyl)phenyl]-2,4-dichlorobenzamide] | 487 ± 38 mOsm/kg | 71.5 ± 1.6 ml/4 hrs | 
0.9 nM | Cc1ccccc1CC(=O)Nc1ccc(C(=O)N2Cc3cccn3Cc3ccccc32)cc1 [Example 93, N-[4(5H-Pyrrolo[2,1-c][1,4]benzodiazepin-10(11H)-ylcarbonyl)phenyl]-2-methylbenzeneacetamide] |  |  | 
10 nM | O=C(Nc1ccc(C(=O)N2Cc3cccn3Cc3ccccc32)cc1)c1ccccc1Cl [Example 7] | 780 mOsm/kg | 9 ml/4 hrs | Osmolality ([2]; 30 mg/kg orally): 815 mOsm/kg; Urine Volume ([2]; 30 mg/kg orally): 12.4 ml/4 hrs
9 nM | CSc1ccccc1C(=O)Nc1ccc(C(=O)N2Cc3cccn3Cc3ccccc32)cc1 [Example 85, N-[4-(5H-Pyrrolo[2,1-c][1,4]benzodiazepin-10(11H)-ylcarbonyl)phenyl]-2-(methylthio)benzamide] |  |  | 
87 nM | O=C(Nc1ccc(C(=O)N2Cc3cccn3Cc3ccccc32)cc1)c1cccc(C(F)(F)F)c1 [Example 474, N-[4-(5H-pyrrolo[2,1-c][1,4]benzodiazepin-10(11H)-ylcarbonyl)phenyl]-3-(trifluoromethyl)benzamide] | 619 mOsm/kg | 11.5 ml/4 hrs | 
1200 nM | O=C(Nc1ccc(C(=O)N2Cc3cccn3-c3ccccc32)cc1)c1ccc(Cl)cc1Cl [Example 17, N-[4-(pyrrolo(1,2-a]quinoxalin-5(4H)-ylcarbonyl)phenyl]-2,4-dichloro-benzamide] |  |  | Osmolality ([2]; 30 mg/kg orally): 1374 mOsm/kg; Urine Volume ([2]; 30 mg/kg orally): 4.1 ml/4 hrs
58 nM | Cc1ccccc1C(=O)Nc1ccc(C(=O)N2Cc3ccnn3Cc3ccccc32)cc1 [Example 210, N-[4-(4H-Pyrazolo[5,1-c][1,4]benzodiazepin-5(10H)-ylcarbonyl)phenyl]-2-methylbenzamide] | 451 mOsm/kg | 15.2 ml/4 hrs | 
38 nM | Cc1ccccc1C(=O)Nc1ccc(C(=O)N2Cc3cccn3Cc3ccccc32)cc1 [Example 3, 2-Methyl-N-[4-(5H-pyrrolo[2,1-c][1,4]-benzodiazepin-10(11H)-ylcarbonyl)phenyl]benzamide] | 567 ± 33 mOsm/kg | 15.8 ± 1 ml/4 hrs | Osmolality ([2]; 1 mg/kg orally): 515 ± 79 mOsm/kg; Urine Volume ([2]; 1 mg/kg orally): 6.5 ± 1 ml/4 hrs; Osmolality ([2]; 3 mg/kg orally): 584 ± 56 mOsm/kg; Urine Volume ([2]; 3 mg/kg orally): 9.6 ± 0.9 ml/4 hrs
1000 nM | Cc1c(F)cccc1C(=O)Nc1ccc(C(=O)N2Cc3cccn3Cc3ccccc32)c(Cl)c1 [Example 481, N-[4-(5H-pyrrolo[2,1-c][1,4]benzodiazepin-10(11H)-ylcarbonyl)-3-chlorophenyl]-3-fluoro-2-methylbenzamide] | 473 mOsm/kg | 17.2 ml/4 hrs | 

Continued, compound first:

Compound | IC50 [1] | Osmolality ([2]; 10 mg/kg orally) | Urine Volume ([2]; 10 mg/kg orally) | further results
CC(=O)OC(C(=O)Nc1ccc(C(=O)N2Cc3cccn3Cc3ccccc32)cc1)c1ccccc1 (stereo not drawn) [Example 587, α-(Acetyloxy)-N-[4-(5H-pyrrolo[2,1-c][1,4]benzodiazepin-10(11H)-ylcarbonyl)phenyl]benzeneacetamide] | 67 nM | 868 mOsm/kg | 9 ml/4 hrs | 
Cc1cccc(NC(=O)c2ccc(C(=O)N3Cc4cccn4Cc4ccccc43)cc2)c1C [Example 485, N-(2,3-Dimethylphenyl)-4-(5H-pyrrolo[2,1-c][1,4]benzodiazepin-10(11H)-ylcarbonyl)benzamide] | 240 nM | 961 mOsm/kg | 4 ml/4 hrs | 
COC(=O)c1ccc2n1Cc1ccccc1N(C(=O)c1ccc(NC(=O)c3ccc(Cl)cc3Cl)cc1)C2 [Example 593] | 210 nM | 577 mOsm/kg | 11.8 ml/4 hrs | 
Cc1ccccc1C(=O)Nc1ccc(C(=O)N2Cc3ccc(C(=O)C(F)(F)F)n3Cc3ccccc32)c(Cl)c1 [Example 595, N-[4-[[3-(Trifluoroacetyl)-5H-pyrrolo[2,1-c][1,4]benzodiazepin-10(11H)-yl]carbonyl]-3-chlorophenyl]-2-methylbenzamide] |  | 1474 mOsm/kg | 8.3 ml/4 hrs | inhibition at 10 µM [1]: 57%
O=C(Nc1ccc(C(=O)N2Cc3ccc(C(=O)C(F)(F)F)n3Cc3ccccc32)cc1)c1ccccc1C(F)(F)F [Example 594] |  | 1172 ± 182 mOsm/kg | 4.9 ± 1.2 ml/4 hrs | inhibition at 10 µM [1]: 78%
Cc1ccc(F)cc1C(=O)Nc1ccc(C(=O)N2Cc3cccn3Cc3ccccc32)c(Cl)c1 [Example 482, N-[4-(5H-pyrrolo[2,1-c][1,4]benzodiazepin-10(11H)-ylcarbony)-3-chlorophenyl]-5-fluoro-2-methylbenzamide] | 410 nM | 372 ± 17 mOsm/kg | 22 ± 0.9 ml/4 hrs | 
COc1cc(C(=O)N2Cc3cccn3Cc3ccccc32)ccc1NC(=O)c1cccc(F)c1C [Example 479, N-[4-(5H-pyrrolo[2,1-c][1,4]benzodiazepin-10(11H)-ylcarbonyl)-2-methoxy-phenyl]-3-fluoro-2-methylbenzamide] |  | 1042 mOsm/kg | 6 ml/4 hrs | 
NC(=O)CNC(C(=O)Nc1ccc(C(=O)N2Cc3cccn3Cc3ccccc32)cc1)c1ccccc1 (stereo not shown) [Example 585] | 280 nM | 1483 mOsm/kg | 3.3 ml/4 hrs | 
O=C(Nc1ccc(C(=O)N2Cc3cccn3Cc3ccccc32)c(Cl)c1)c1ccc(Cl)cc1Cl [Example 471] | 45 nM | 507 ± 38 mOsm/kg | 14.1 ± 1.9 ml/4 hrs | 
Cc1ccccc1C(=O)Nc1c(C)cc(C(=O)N2Cc3cccn3Cc3ccccc32)cc1C [Example 472] | 890 nM | 1453 mOsm/kg | 4.3 ml/4 hrs | 
Cc1ccccc1C(=O)Nc1ccc(C(=O)N2Cc3cccn3Cc3ccccc32)c(Cl)c1 [Example 470] | 54 nM | 387 mOsm/kg | 17 ml/4 hrs | 
Cc1ccccc1C(=O)Nc1ccc(C(=O)N2Cc3cccn3Cc3ccccc32)cc1Cl [Example 530, N-[4-(5H-Pyrrolo[2,1-c][1,4]benzodiazepin-10(11H)-ylcarbonyl)-2-chlorophenyl]-2-methylbenzamide] |  | 914 mOsm/kg | 6 ml/4 hrs | 
COC(=O)c1ccc(C(=O)Nc2ccc(C(=O)N3Cc4cccn4Cc4ccccc43)cc2)cc1 [Example 489] |  | 1194 mOsm/kg | 6.1 ml/4 hrs | inhibition at 10 µM [1]: 61%
O=C(Nc1ccc(C(=O)N2Cc3cccn3Cc3ccccc32)cc1)c1cc(Cl)ccc1Cl [Example 4, N-[4-(5H-pyrrolo[2,1-c][1,4]benzodiazepin-10(11H)-ylcarbonyl)phenyl]-2,5-dichlorobenzamide] | 120 nM | 571 mOsm/kg | 16.9 ml/4 hrs | Osmolality ([2]; 1 mg/kg orally): 1129 mOsm/kg; Urine Volume ([2]; 1 mg/kg orally): 2 ml/4 hrs; Osmolality ([2]; 3 mg/kg orally): 646 ± 115 mOsm/kg; Urine Volume ([2]; 3 mg/kg orally): 9.5 ± 1.2 ml/4 hrs
O=C(Nc1ccc(C(=O)N2Cc3ccc(Cn4ccnc4)n3Cc3ccccc32)cc1)c1ccc(Cl)cc1Cl [Example 582, 2,4-Dichloro-N-[4-[[3-(1H-imidazol-1-ylmethyl)-5H-pyrrolo[2,1-c][1,4]benzodiazepin-10(11H)-yl]carbonyl]phenyl]benzamide] | 130 nM | 604 mOsm/kg | 9.5 ml/4 hrs | 
O=C(Nc1ccc(C(=O)N2Cc3cccn3Cc3ccccc32)cc1)c1sccc1Cl [Example 476, N-[4-(5H-pyrrolo[2,1-c][1,4]benzodiazepin-10(11H)-ylcarbonyl)phenyl]-3-chlorothiophene-2-carboxamide] | 84 nM | 1233 mOsm/kg | 5 ml/4 hrs | 
Cc1c(F)cccc1C(=O)Nc1ccc(C(=O)N2Cc3ccnn3Cc3ccccc32)cc1 [Example 517, N-[4-(4H-Pyrazolo[5,1-c][1,4]benzodiazepin-5(10H)-ylcarbonyl)phenyl]-3-fluoro-2-methylbenzamide] | 210 nM | 411 mOsm/kg | 14.7 ml/4 hrs | 
O=C(Nc1ccc(C(=O)N2Cc3cccn3Cc3ccccc32)cc1)c1cc(Cl)cc(Cl)c1Cl [Example 599, N-[4-(5H-Pyrrolo[2,1-c][1,4]benzodiazepin-10(11H)-ylcarbonyl)phenyl]-2,3,5-trichlorobenzamide] | 46 nM | 407 mOsm/kg | 18 ml/4 hrs | 
O=C(CN1CCOCC1)Nc1ccc(C(=O)N2Cc3cccn3Cc3ccccc32)cc1 [Example 590, N-[4-(5H-pyrrolo[2,1-c][1,4]benzodiazepin-10(11H)-ylcarbonyl)phenyl]-4-morpholineacetamide] |  | 1355 mOsm/kg | 3 ml/4 hrs | inhibition at 10 µM [1]: 89%
O=C(Nc1ccc(C(=O)N2Cc3cccn3Cc3ccccc32)cc1)c1c(Cl)cccc1Cl [Example 469, N-[4-(5H-pyrrolo[2,1-c][1,4]benzodiazepin-10(11H)-ylcarbonyl)phenyl]-2,6-dichlorobenzamide] | 94 nM | 548 mOsm/kg | 11.3 ml/4 hrs | 
O=C(Nc1ccc(C(=O)N2Cc3ccc(CO)n3Cc3ccccc32)cc1)c1ccc(Cl)cc1Cl [Example 581, 2,4-Dichloro-N-[4-[[3-(hydroxymethyl)-5H-pyrrolo[2,1-c][1,4]benzodiazepin-10(11H)-yl]carbonyl]phenyl]benzamide] | 21 nM | 941 ± 219 mOsm/kg | 4 ± 1.2 ml/4 hrs | 
